Results taken from US8178538B2, “Pyridazinones” (Hoffmann-La Roche Inc., priority 2008, dated 2012).

molecular target: T1, PDE10A2 (Homo sapiens, UniProt Q9Y233); test: PDE10A2 inhibition, Scintillation Proximity Assay (SPA); type: biochemical; details: catalytic domain of human PDE10A2 (S449-D789), 0.25 nM enzyme, 50 nM cGMP + 50 nM [3H]-cGMP, 30 minutes at room temperature
T1 construct: residues serine 449 to aspartate 789; His6 (H6) with thrombin cleavage site (N, cleaved yes); made in house; host or cells: E. coli BL21(DE3) pLysS
T1 sequence (Q9Y233 715-1055): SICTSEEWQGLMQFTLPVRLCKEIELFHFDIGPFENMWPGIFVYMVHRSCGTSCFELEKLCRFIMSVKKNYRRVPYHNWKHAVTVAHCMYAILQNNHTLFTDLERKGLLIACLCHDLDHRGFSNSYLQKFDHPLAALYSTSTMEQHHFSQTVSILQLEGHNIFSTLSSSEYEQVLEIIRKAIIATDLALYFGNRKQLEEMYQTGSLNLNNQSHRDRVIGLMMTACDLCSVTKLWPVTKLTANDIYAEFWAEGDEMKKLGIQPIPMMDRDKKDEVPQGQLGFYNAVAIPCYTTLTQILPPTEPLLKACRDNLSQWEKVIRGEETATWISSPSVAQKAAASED
Method: The following tests were carried out in order to determine the activity of the compounds of the present invention. PDE10 activity of the compounds of the present invention is determined using a Scintillation Proximity Assay (SPA)-based method similar to the one previously described (Fawcett, L. et al., Proc Natl Acad Sci USA (2000) 97(7):3702-3707).
PDE10A1 and PDE10A2 are two splice variants of PDE10A. There are these 2 splice variants known, which differ in the N-terminal part of the protein. The catalytic domains of PDE10A1 and PDE10A2 are identical. The assay for PDE10A2 described below is therefore also representative for PDE10A1 and also for PDE10A in general.
The PDE10A2 assay was performed in a two step procedure in 96-well micro titer plates. The reaction mixture of 80 μl contained 20 mM HEPES/10 mM MgCl2/[…] (pH 7.5), 50 nM cGMP (Sigma) and 50 nM [^3H]-cGMP (GE Healthcare), 0.25 nM PDE10A2 with or without a specific test compound. A range of concentrations of the potential inhibitor was used to generate data for calculating the concentration of inhibitor resulting in 50% of the effect (e.g. IC50, the concentration of the competitor inhibiting PDE10A2 activity 50%). Non-specific activity was tested without the enzyme. The reaction was initiated by addition of the substrate solution (cGMP and [^3H]-cGMP) and allowed to progress for 30 minutes at room temperature. The reaction was terminated by transferring 50 μl of the reaction mixture into an OptiPlate (Perkin Elmer) containing 25 μl of YSi-SPA scintillation beads (GE Healthcare) in 18 mM zinc sulphate solution (stop reagent). After 1 h under shaking, the plate was centrifuged one minute at 1000 rpm to allow beads to settle. Afterwards, radioactive counts were measured on a Perkin Elmer TopCount Scintillation plate reader.
The catalytic domain of human PDE10A2, residues serine 449 to aspartate 789, was amplified by PCR using cDNA (Origene) and the oligonucleotides 5′-GGGGACAAGTTT […]-3′ (SEQ ID NO. 1) (with AttB1 recombination site in bold and thrombin protease cleavage site in italics) and 5′-[…] GCTG-3′ (SEQ ID NO. 2) (with AttB2 recombination site in bold) which conferred Gateway recombination sites. The PCR product was used in a BP recombination reaction with pDONR221 to generate pENTR Thm-PDE10A2(S449-D789) which was DNA sequence verified and then used in an LR recombination reaction with a Gateway modified version of pET11a. The resulting expression vector, placT7.2H6-(gw1)-Thm-PDE10A2(S449-D789) was DNA sequence confirmed and transformed into E. coli strain BL21(DE3) pLysS and recombinant protein was produced in TB medium at 20° C. by induction to a final IPTG concentration of 0.5 mM at an optical density of 1.0 at 600 nm for 20 hours. About 30% of the protein was in the soluble fraction of the cell homogenate. The protein was purified using sequential chromatography on Ni-NTA and HiTrapQ/HiTrapS. After thrombin digest at room temperature a HiTrapChelating/HiTrap Benzamindin chromatography removed impurities, uncleaved protein and thrombin. Final purification of PDE10A2(S449-D789) was performed on a Superdex 75 size exclusion chromatography equilibrated with 25 mM HEPES pH 8.4, 0.15 M NaCl. The yield of pure protein was 2 mg/liter of culture volume is relatively low. The purity of the protein was >95%, monomeric and monodisperse as shown by SDS-PAGE, HPLC and analytical ultracentrifugation.

Row | IC50 [µM] | SMILES
1 | 0.037 | O=c1ccn(-c2ccc(OC(F)(F)F)cc2)nc1-c1ccnn1-c1ccc(F)cc1 [Example 138, 3-[2-(4-Fluoro-phenyl)-2H-pyrazol-3-yl]-1-(4-trifluoromethoxy-phenyl)-1H-pyridazin-4-one]
2 | 0.072 | O=c1ccn(-c2ccc(OC(F)(F)F)cc2)nc1-c1ccnn1-c1cccc2c1OC(F)(F)O2 [Example 145, 3-[2-(2,2-Difluoro-benzo[1,3]dioxol-4-yl)-2H-pyrazol-3-yl]-1-(4-trifluoromethoxy-phenyl)-1H-pyridazin-4-one]
3 | 0.014 | O=c1ccn(-c2ccc(OC(F)F)cc2)nc1-c1ccnn1-c1ccnc2ccc(F)cc12 [Example 149, 1-(4-Difluoromethoxy-phenyl)-3-[2-(6-fluoro-quinolin-4-yl)-2H-pyrazol-3-yl]-1H-pyridazin-4-one]
4 | 0.005 | O=c1ccn(-c2cccc(OC(F)F)c2)nc1-c1ccnn1-c1ccnc2ccc(F)cc12 [Example 150, 1-(3-Difluoromethoxy-phenyl)-3-[2-(6-fluoro-quinolin-4-yl)-2H-pyrazol-3-yl]-1H-pyridazin-4-one]
5 | 0.067 | CS(=O)(=O)c1ccc(-n2ccc(=O)c(-c3ccnn3-c3ccc(F)cc3)n2)cc1 [Example 153, 3-[2-(4-Fluoro-phenyl)-2H-pyrazol-3-yl]-1-(4-methanesulfonyl-phenyl)-1H-pyridazin-4-one]
6 | 0.092 | CS(=O)(=O)c1ccc(-n2ccc(=O)c(-c3ccnn3-c3cccc(Cl)c3)n2)cc1 [Example 157, 3-[2-(3-Chloro-phenyl)-2H-pyrazol-3-yl]-1-(4-methanesulfonyl-phenyl)-1H-pyridazin-4-one]
7 | 0.155 | O=c1ccn(-c2cccc(OC(F)(F)F)c2)nc1-c1ccnn1-c1ccc2c(c1)OC(F)(F)O2 [Example 162, 3-[2-(2,2-Difluoro-benzo[1,3]dioxol-5-yl)-2H-pyrazol-3-yl]-1-(3-trifluoromethoxy-phenyl)-1H-pyridazin-4-one]
8 | 0.051 | O=c1ccn(-c2ccc(OC(F)F)cc2)nc1-c1ccnn1-c1cccc(OC(F)(F)F)c1 [Example 165, 1-(4-Difluoromethoxy-phenyl)-3-[2-(3-trifluoromethoxy-phenyl)-2H-pyrazol-3-yl]-1H-pyridazin-4-one]
9 | 0.046 | O=c1ccn(-c2cccc(OC(F)F)c2)nc1-c1ccnn1-c1ccccc1F [Example 171, 1-(3-Difluoromethoxy-phenyl)-3-[2-(2-fluoro-phenyl)-2H-pyrazol-3-yl]-1H-pyridazin-4-one]
10 | 0.184 | O=c1ccn(-c2ccc3c(c2)OC(F)(F)O3)nc1-c1ccnn1-c1ccccc1F [Example 174, 1-(2,2-Difluoro-benzo[1,3]dioxol-5-yl)-3-[2-(2-fluoro-phenyl)-2H-pyrazol-3-yl]-1H-pyridazin-4-one]
11 | 0.027 | Cc1cc(-n2nccc2-c2nn(-c3cccc(OC(F)(F)F)c3)ccc2=O)c2cc(F)ccc2n1 [Example 177, 3-[2-(6-Fluoro-2-methyl-quinolin-4-yl)-2H-pyrazol-3-yl]-1-(3-trifluoromethoxy-phenyl)-1H-pyridazin-4-one]
12 | 0.047 | O=c1ccn(-c2ccccc2)nc1-c1ccnn1-c1ccccc1F [Example 183, 3-[2-(2-Fluoro-phenyl)-2H-pyrazol-3-yl]-1-phenyl-1H-pyridazin-4-one]
13 | 0.002 | O=c1ccn(-c2ccc(OC(F)(F)F)cc2)nc1-c1ccnn1-c1ccnc2ccccc12 [Example 186, 3-(2-Quinolin-4-yl-2H-pyrazol-3-yl)-1-(4-trifluoromethoxy-phenyl)-1H-pyridazin-4-one]
14 | 0.013 | CS(=O)(=O)c1ccc(-n2ccc(=O)c(-c3ccnn3-c3cccc4cnccc34)n2)cc1 [Example 192, 3-(2-Isoquinolin-5-yl-2H-pyrazol-3-yl)-1-(4-methanesulfonyl-phenyl)-1H-pyridazin-4-one]
15 | 0.046 | CCOc1cc(-n2nccc2-c2nn(-c3ccc(OC(F)(F)F)cc3)ccc2=O)ccn1 [Example 200, 3-[2-(2-Ethoxy-pyridin-4-yl)-2H-pyrazol-3-yl]-1-(4-trifluoromethoxy-phenyl)-1H-pyridazin-4-one]
16 | 0.013 | O=c1ccn(-c2cccc(OC(F)(F)F)c2)nc1-c1ccnn1-c1cccc2ncccc12 [Example 203, 3-(2-Quinolin-5-yl-2H-pyrazol-3-yl)-1-(3-trifluoromethoxy-phenyl)-1H-pyridazin-4-one]
17 | 0.017 | O=c1ccn(-c2cccc(OC(F)F)c2)nc1-c1ccnn1-c1cccc(Cl)c1 [Example 206, 3-[2-(3-Chloro-phenyl)-2H-pyrazol-3-yl]-1-(3-difluoromethoxy-phenyl)-1H-pyridazin-4-one]
18 | 0.005 | N#Cc1cccc(-n2ccc(=O)c(-c3ccnn3-c3ccnc4ccccc34)n2)c1 [Example 207, 3-[4-Oxo-3-(2-quinolin-4-yl-2H-pyrazol-3-yl)-4H-pyridazin-1-yl]-benzonitrile]
19 | 0.02 | Cc1ccccc1-n1nccc1-c1nn(-c2ccc(C(F)(F)F)cc2)ccc1=O [Example 216, 3-(2-o-Tolyl-2H-pyrazol-3-yl)-1-(4-trifluoromethyl-phenyl)-1H-pyridazin-4-one]
20 | 0.022 | O=c1ccn(-c2ccc(OC(F)(F)F)cc2)nc1-c1ccnn1-c1ccnc2ccc(Cl)cc12 [Example 224, 3-[2-(6-Chloro-quinolin-4-yl)-2H-pyrazol-3-yl]-1-(4-trifluoromethoxy-phenyl)-1H-pyridazin-4-one]
21 | 0.012 | O=c1ccn(-c2ccc(S(=O)(=O)C(F)(F)F)cc2)nc1-c1ccnn1-c1ccccc1F [Example 232, 3-[2-(2-Fluoro-phenyl)-2H-pyrazol-3-yl]-1-(4-trifluoromethanesulfonyl-phenyl)-1H-pyridazin-4-one]
22 | 0.101 | O=c1ccn(-c2ccc(C(F)(F)F)cc2)nc1-c1ccnn1-c1ccc(Cl)c2ccccc12 [Example 237, 3-[2-(4-Chloro-naphthalen-1-yl)-2H-pyrazol-3-yl]-1-(4-trifluoromethyl-phenyl)-1H-pyridazin-4-one]
23 | 0.046 | O=c1ccn(-c2cccc(Cl)c2)nc1-c1ccnn1-c1ccc(Cl)c2ccccc12 [Example 244, 3-[2-(4-Chloro-naphthalen-1-yl)-2H-pyrazol-3-yl]-1-(3-chloro-phenyl)-1H-pyridazin-4-one]
24 | 0.005 | O=c1ccn(-c2ccc(OCC(F)(F)F)cc2)nc1-c1ccnn1-c1ccccc1F [Example 255, 3-[2-(2-Fluoro-phenyl)-2H-pyrazol-3-yl]-1-[4-(2,2,2-trifluoro-ethoxy)-phenyl]-1H-pyridazin-4-one]
25 | 0.003 | O=c1ccn(-c2ccc(OCC(F)(F)F)cc2)nc1-c1ccnn1-c1cccc(Cl)c1 [Example 257, 3-[2-(3-Chloro-phenyl)-2H-pyrazol-3-yl]-1-[4-(2,2,2-trifluoro-ethoxy)-phenyl]-1H-pyridazin-4-one]
26 | 0.001 | O=c1ccn(-c2ccc(OCC(F)(F)F)cc2)nc1-c1ccnn1-c1ccnc2ccccc12 [Example 259, 3-(2-Quinolin-4-yl-2H-pyrazol-3-yl)-1-[4-(2,2,2-trifluoro-ethoxy)-phenyl]-1H-pyridazin-4-one]
27 | 0.04 | O=c1ccn(-c2cccc(S(=O)(=O)N3CCCCC3)c2)nc1-c1ccnn1-c1ccnc2ccc(Cl)cc12 [Example 267, 3-[2-(6-Chloro-quinolin-4-yl)-2H-pyrazol-3-yl]-1-[3-(piperidine-1-sulfonyl)-phenyl]-1H-pyridazin-4-one]
